Counter-ions that a name gives are not always drawn. Like-named read-outs stand apart in the source and are kept apart here.
What was measured:
rLUJV/ZsG = assay: microbe, parasite or virus in culture; format: cell-based, Lujo virus; conditions: for activity at 0.05 µM / activity at 0.5 µM / activity at 5 µM: Huh-7, read-out: Relative ZsG (%) Mean
in vitro = conditions: human; for CC50: CC50 (50% cell cytotoxicity concentration)
[1] = Mammarenavirus lujoense, 500 nM
[2] = Mammarenavirus lujoense, 5000 nM

Compound	Cell Viability (%) Mean (Huh7 cells; 50 nM) [%]	Cell Viability (%) Mean (Huh7 cells; 500 nM) [%]	Cell Viability (%) Mean (Huh7 cells; 5000 nM) [%]	Relative ZsG (%) Mean (rLUJV/ZsG; 50 nM) [%]	Relative ZsG (%) Mean (rLUJV/ZsG; 500 nM) [%]	Relative ZsG (%) Mean (rLUJV/ZsG; 5000 nM) [%]	viability at 0.05 µM (in vitro) [%]	viability at 0.5 µM (in vitro) [%]	viability at 5 µM (in vitro) [%]	activity at 0.05 µM (rLUJV/ZsG; Mammarenavirus lujoense, 50 nM) [%]	activity at 0.5 µM (rLUJV/ZsG; [1]) [%]	activity at 5 µM (rLUJV/ZsG; [2]) [%]	CC50 (in vitro) [µM]	EC50 (rLUJV/ZsG; Mammarenavirus lujoense, Huh-7, read-out: EC50 (concentration inhibiting ZsG expression by 50%)) [µM]	EC50 (rLUJV/ZsG; read-out: EC50 (concentration inhibiting ZsG expression by 50%)) [µM]
[N-]=[N+]=N[C@]1(CO)O[C@@H](n2ccc(N)nc2=O)[C@@H](O)[C@@H]1O [R09187]	99	98	102	116	122	88									
Nc1cccc(-c2cc3c(Oc4cccc(O)c4)ncnc3[nH]2)c1 [TWS119]	135	124	36	74	74	13									
C#C[C@@]1(O)[C@H](O)[C@@H](CO)O[C@H]1n1ccc2c(N)ncnc21 [NITD008]	99	96	97	122	110	136									
C[C@@]1(F)[C@H](O)[C@@H](CO)O[C@H]1n1ccc(=O)[nH]c1=O [PSI-6206]	103	96	104	141	87	128									
COc1ccc(-n2cnc3cc(NCc4ccc(C(C)C)cc4)ccc32)cc1 [ST-193]	105	98	101	107	102	91									
CC(C)C(=O)OC[C@H]1O[C@@H](n2ccc(N)nc2=O)[C@](C)(F)[C@@H]1OC(=O)C(C)C [R-7128]	100	98	103	133	80	126									
C[C@@]1(O)[C@H](O)[C@@H](CO)O[C@H]1n1ccc2c(N)ncnc21 [7-DMA]	98	103	113	96	95	92									
Nc1nc(Cl)nc2c1ncn2[C@@H]1O[C@H](CO)[C@@H](O)[C@H]1O [2-chloroadenosine]							98	105	103	124	133	99			
COc1cc2ncnc(Nc3ccc(F)c(Cl)c3)c2cc1OCCCN1CCOCC1 [Gefitinib]							128	121	101	77	71	48			
N#CC1(c2ccc(NC(=O)c3cccnc3NCc3ccncc3)cc2)CCCC1 [Apatinib]							113	119	95	91	67	47			
CCCCc1oc2ccccc2c1C(=O)c1cc(I)c(OCCN(CC)CC)c(I)c1 [Amiodarone]										80	60	3	13.6 ± 1.51		
CN1[C@@H]2CC[C@H]1C[C@@H](OC(c1ccccc1)c1ccccc1)C2 [Benztropine mesylate]							126	130	108	110	90	36	> 25	5.14 ± 1.52	5.14 ± 1.52
CC(C)/N=c1\cc2n(-c3ccc(Cl)cc3)c3ccccc3nc-2cc1Nc1ccc(Cl)cc1 [Clofazimine]							120	125	102	88	75	52			
CN[C@H]1CC[C@@H](c2ccc(Cl)c(Cl)c2)c2ccccc21 [Sertraline]							122	128	107	80	69	35			
Nc1ncnc2c([C@@H]3N[C@H](CO)[C@@H](O)[C@H]3O)c[nH]c12 [BCX-4430]							99	97	101	103	132	99			
N#Cc1cn([C@@H]2O[C@H](CO)[C@@H](O)[C@H]2O)c2ncnc(N)c12 [Toyocamycin]							97	64	23	69	12	7			
Cc1cn([C@@H]2O[C@H](CO)[C@@H](O)[C@H]2O)c(=O)nc1N [5-methylcytidine]							96	97	98	122	129	108			
C[C@@]1(O)[C@H](O)[C@@H](CO)O[C@H]1n1ccc(N)nc1=O [2ʹ-C-methylcytidine]							102	104	99	124	144	103			
CCOC(=O)C1=C(C)NC(C)=C(C(=O)OCC)C1c1ccccc1/C=C/C(=O)OC(C)(C)C [Lacidipine]							138	129	98	90	90	47			
C[C@@]1(O)[C@H](O)[C@@H](CO)O[C@H]1n1ccc(=O)[nH]c1=O [2ʹ-C-methyluridine]							102	100	97	132	142	126			
Nc1ncnc2c1nnn2[C@@H]1O[C@H](CO)[C@@H](O)[C@H]1O [8-azaadenosine]							98	103	47	118	121	6			
CC(C)OC(=O)[C@H](C)N[P@](=O)(OC[C@H]1O[C@@H](n2ccc(=O)[nH]c2=O)[C@](C)(F)[C@@H]1O)Oc1ccccc1 [PSI-7977]							101	97	104	119	95	118			
O=C1C(O)=C([C@H]2CC[C@H](c3ccc(Cl)cc3)CC2)C(=O)c2ccccc21 [Atovaquone]							129	134	115	108	90	74			
O=C1CCc2ccc(OCCCCN3CCN(c4cccc(Cl)c4Cl)CC3)cc2N1 [Aripiprazole]							124	126	59	71	81	16			
COc1ccc2cc1Oc1ccc(cc1)C[C@H]1c3cc(c(OC)cc3CCN1C)Oc1c(OC)c(OC)cc3c1[C@H](C2)N(C)CC3 [Tetrandrine]							115	95	1	95	75	2			

From paper PMC8310135 (Viruses, 2021)
